FAM = 5(6)-carboxyfluorescein
Each substance was assayed on NSC-34 cells (assay: Evaluation of cell membrane permeability by flow cytometry (MFI of FAM fluorescence)). Conditions: Test 1; 20 μM.
Type: cell-based, mouse
Description: As a culture medium of the NSC-34 cell, 10% fetal bovine serum (FBS)-containing Dulbecco's modified Eagle's medium (DMEM (Cat No. 044-29765, manufactured by FUJIFILM Wako Pure Chemical Corporation)) was used. The samples 1 to 6 were each dissolved in dimethyl sulfoxide (DMSO) to prepare sample solutions 1 to 6 with a sample concentration of 4 mM. Then, the sample solutions were diluted in the culture medium to prepare 40 μM sample solutions 1 to 6.
The NSC-34 cell was suspended in the culture medium to prepare a cell suspension of 2×10^5 cells/mL. The cell suspension was added by 1 mL to a well of a commercially available six-hole (well) plate (manufactured by AGC TECHNO GLASS Co., Ltd.) so as to seed the NSC-34 cell to be 2× 10^5 cells/well. […] After that, the six-well plate was left at rest in a cell culture apparatus, and incubated for 20 hours at 37° C. under a 5% CO2 condition.
After the 20-hour incubation, the culture supernatant was removed from the well and the cells in the well were cleaned twice with 1 mL of PBS. Next, 100 μL of the 0.25% trypsin/EDTA solution was added to the well and the incubation was performed for three minutes at 37° C. After the incubation, 900 μL of the culture medium was added to the well to deactivate the trypsin. Subsequently, the cell suspension in the well was transferred to a tube and the cells were collected. This tube was subjected to five-minute centrifugal separation at 4° C. under a condition of 210×g. After the centrifugal separation, the supernatant was removed and the precipitate (cell pellet) was suspended (cleaned) with 1 mL of PBS, which was followed by the centrifugal separation under the same condition as that described above. After this operation was repeated twice, the supernatant was removed and thus, the cells (cell pellet) cultured in the culture medium containing the sample 1 were obtained.
Regarding the obtained cells (cell pellet), the cell membrane permeability of the sample 1 was analyzed using a flow cytometer. As the flow cytometer, On-Chip Flowcytometer (manufactured by On-Chip Biotechnologies Co., LTD.) was used.
For such an analysis, the obtained cell pellet was suspended with 100 μL of on-chip T buffer to prepare a cell suspension for analysis.
Using the aforementioned flow cytometer, gating based on forward scatter (FSC) and side scatter (SSC) was performed to set a gate about a cell group to be analyzed, and the fluorescence intensity was measured about the cell group in this gate. Note that the number of cells of the cell group was set to at least 10000 or more in the analysis. The fluorescence intensity was measured using a fluorescence detector FL2 of the flow cytometer (optimum detection wavelength around 543 nm) capable of detecting the fluorescence wavelength of FAM. Regarding this measurement result, the analysis was performed using commercially available analysis software “FlowJo” (manufactured by TreeStar) to obtain mean fluorescence intensity (MFI) of the cell group to be measured. […]

Substance	value of MFI compared with Reference Example 1 (FAM alone)
Ac-PD-FAM [Example 5]	lower
Ac-PE-FAM [Example 6]	lower

Same assay, conditions: Test 1; NSC-34 cells; sample/FAM concentration 20 μM in culture medium; 20 hours incubation at 37° C.; detector FL2

Substance	MFI
5(6)-carboxyfluorescein [Reference Example 1, reference compound]	10.9
Ac-PD-FAM [Example 5]	7.8
Ac-PDPD-FAM [Example 1]	15
Ac-PDPEG-FAM [Example 3]	18.9
Ac-PE-FAM [Example 6]	7.4
Ac-PEPDG-FAM [Example 4]	19.9
Ac-PEPE-FAM [Example 2]	16.2

Same assay, conditions: Test 2; NSC-34 cells; sample/FAM concentration 25 μM in culture medium; otherwise similar to Test 1

Substance	MFI
5(6)-carboxyfluorescein [Reference Example 1, reference compound]	13.1
Ac-PDPDPDPDPDPDG-FAM (Ac-PDPDPDPDPDPDG-{FAM}) [Example 7, construct: N-terminally acetylated peptide 7 bonded to FAM]	27.5
Ac-PDPEPDPEPDPEG-FAM (Ac-PDPEPDPEPDPEG-{FAM}) [Example 9, construct: N-terminally acetylated peptide 9 bonded to FAM]	25.1
Ac-PEPEPEPEPEPEG-FAM (Ac-PEPEPEPEPEPEG-{FAM}) [Example 8, construct: N-terminally acetylated peptide 8 bonded to FAM]	29.3

From patent US20260209270A1, “Synthetic Peptide And Construct” (TOAGOSEI CO., LTD., priority 2022, published 2026)
